Values after ≈ are worked out from the molar mass of the structure shown. Bounds are passed on as bounds.

Holding throughout (assay): ≥ marks a high value that may be exact or a test limit, other limits are often not marked, values filed in µg/mL are converted to µM
Test [1] deals with Escherichia coli ATCC 25922.
For test [2], the system named is Pseudomonas aeruginosa CICC 21630.
For test [3], the system named is Pseudomonas aeruginosa CICC 10419.
The subject of test [4] is Pseudomonas aeruginosa CICC 11411.
Test [5] deals with Pseudomonas aeruginosa CICC 11421.
Test [6] concerns Pseudomonas aeruginosa ATCC 27853.
Test [7] has as its system Pseudomonas aeruginosa CICC 21625.
Test [8] has as its system Staphylococcus aureus ATCC 29213.
The test system of test [9] is Pseudomonas aeruginosa 25349.
For test [10], the system named is Pseudomonas aeruginosa 21328.
Test [11] has as its system Pseudomonas aeruginosa CICC 11431.
Test [12] concerns Proteus mirabilis CCUG 26767.
Test [13] has as its system Enterococcus faecium ATCC 19434.
The test system of test [14] is Bacillus subtilis ATCC 6633.
Test [15] has as its system Enterococcus faecalis ATCC 19433.
The subject of test [16] is Salmonella enterica subsp. enterica serovar Typhimurium LT2.
In test [17] the test system is Klebsiella pneumoniae ATCC 13883.
Test [18] concerns Staphylococcus aureus ATCC 6538.
Test [19] has as its system Micrococcus luteus NCIMB 13267.
The subject of another test is Escherichia coli K-12.
The subject of a further test is Candida krusei NCPF 3876.
The test system of test [20] is Escherichia coli NCTC 12923.
For test [21], the system named is Candida albicans ATCC 90028.
In test [22] the test system is Staphylococcus aureus USA 300.
Test [23] relates to Staphylococcus aureus ATCC 9144.
Test [24] relates to Pseudomonas aeruginosa PAO1.
For test [25], the system named is Acinetobacter baumannii ATCC 17978.
The subject of test [26] is Klebsiella pneumoniae NCTC 13368.
Test [27] relates to Pseudomonas aeruginosa PA214.
Test [28] relates to Acinetobacter baumannii ATCC 19606.
The subject of test [29] is Acinetobacter baumannii CR17.
The test system of test [30] is Acinetobacter baumannii ATCC BAA-1605.
Test [31] concerns Klebsiella pneumoniae ATCC 700603.
In test [32] the test system is Staphylococcus aureus ATCC 33591.
The subject of test [33] is Enterococcus faecium ATCC 700221.
Test [34] deals with Escherichia coli KpC+001812446.
Test [35] deals with Klebsiella pneumoniae KpC+001825971.

`C[C@H](N)C(=O)N[C@@H](CCCN=C(N)N)C(=O)N[C@@H](CCCN=C(N)N)C(=O)N[C@@H](C)C(=O)N[C@@H](CCCN=C(N)N)C(=O)N[C@@H](CCCN=C(N)N)C(=O)N[C@@H](CCCN=C(N)N)C(=O)N[C@@H](Cc1c[nH]c2ccccc12)C(=O)N[C@@H](CCCN=C(N)N)C(=O)N[C@@H](CCCN=C(N)N)C(=O)N[C@@H](CCCN=C(N)N)C(=O)N[C@@H](C)C(=O)N[C@@H](CCCN=C(N)N)C(=O)N[C@@H](CCCN=C(N)N)C(=O)N[C@@H](C)C(N)=O` [ARRARRRWRRRARRA]: the MIC in [1] is 31.2 µM (≈ 64 µg/mL); in test [2], ≥ 125 µM; in [3] it was ≥ 125 µM; in test [4], ≥ 125 µM; in [5], ≥ 125 µM; in [6], 62.4 µM (≈ 128 µg/mL). The MIC in test [7] was ≥ 125 µM; in test [8], 31.2 µM (≈ 64 µg/mL); in test [9] it was 15.6 µM (≈ 32 µg/mL); in test [10], ≥ 125 µM; in test [11], ≥ 125 µM.
For `CC[C@H](C)[C@H](NC(=O)[C@H](CC(C)C)NC(=O)[C@@H]1CCCN1C(=O)[C@H](CC(C)C)NC(=O)[C@@H](N)Cc1ccccc1)C(=O)N[C@@H](CC(C)C)C(=O)N[C@@H](Cc1ccccc1)C(=O)N[C@@H](Cc1c[nH]c2ccccc12)C(=O)N[C@H](C(=O)N[C@H](C(=O)N[C@H](C(=O)N[C@@H](C)C(=O)N[C@@H](CC(C)C)C(N)=O)[C@@H](C)O)C(C)C)[C@@H](C)CC` [FLPLILFWIVTAL], the MIC was ≥ 388 µM in test [12]; ≥ 388 µM in test [13]; > 388 µM in [1]; ≥ 388 µM in [14]; ≥ 388 µM in [15]; ≥ 388 µM in test [16]. The MIC in test [17] was ≥ 388 µM; in test [6] it was > 388 µM; in [8], > 388 µM.
As to `CC(C)C[C@H](NC(=O)[C@H](CO)NC(=O)[C@H](CCC(=O)O)NC(=O)[C@H](CC(C)C)NC(=O)[C@H](CCC(N)=O)NC(=O)[C@H](CCC(N)=O)NC(=O)[C@H](CCC(=O)O)NC(=O)[C@H](CC(C)C)NC(=O)[C@H](CCC(N)=O)NC(=O)[C@H](CO)NC(=O)[C@H](CC(C)C)NC(=O)[C@H](CCC(=O)O)NC(=O)[C@H](CCC(N)=O)NC(=O)[C@H](CCC(=O)O)NC(=O)[C@H](CC(C)C)NC(=O)[C@H](CO)NC(=O)[C@H](CCC(N)=O)NC(=O)[C@H](C)NC(=O)[C@H](CCC(=O)O)NC(=O)[C@H](CCC(N)=O)NC(=O)[C@H](CCC(=O)O)NC(=O)[C@H](Cc1ccccc1)NC(=O)[C@H](CCC(N)=O)NC(=O)[C@H](C)NC(=O)[C@H](Cc1ccccc1)NC(=O)[C@H](CCC(=O)O)NC(=O)CN)C(=O)O` [GEFAQFEQEAQSLEQELSQLEQQLESL], the minimal inhibitory concentration (MIC) in test [14] is ≥ 200 µM; in test [18], > 200 µM; in [6], > 200 µM; in [19] it was ≥ 200 µM; in the test on Escherichia coli K-12, ≥ 200 µM.
In the case of `CC[C@H](C)[C@H](N)C(=O)N[C@@H](CCCN=C(N)N)C(=O)NCC(=O)N[C@@H](Cc1ccc(O)cc1)C(=O)N[C@@H](CCCCN)C(=O)NCC(=O)NCC(=O)N[C@@H](Cc1ccc(O)cc1)C(=O)N[C@@H](CS)C(=O)N[C@@H](CCCCN)C(N)=O` [IRGYKGGYCK], the MIC with Candida krusei NCPF 3876 is ≥ 112 µM; in [20] it was ≥ 112 µM; in test [21], 15.4 µM (≈ 17.6 µg/mL); in test [22] it was ≥ 112 µM; in test [23] it was ≥ 112 µM; in [24], > 112 µM. In addition, the MIC in test [25] and in test [26] was ≥ 112 µM throughout.
In the case of `CC(C)C[C@H](NC(=O)[C@H](Cc1ccccc1)NC(=O)[C@H](C)NC(=O)[C@H](C)NC(=O)[C@H](CCCCN)NC(=O)[C@H](CCCCN)NC(=O)[C@H](CCCCN)NC(=O)[C@@H](N)CCCCN)C(=O)N[C@@H](CCCCN)C(=O)N[C@@H](CC(C)C)C(=O)N[C@@H](Cc1c[nH]c2ccccc12)C(=O)N[C@@H](CC(C)C)C(=O)N[C@@H](CCCCN)C(=O)N[C@@H](CC(C)C)C(=O)N[C@@H](Cc1ccccc1)C(=O)N[C@@H](C)C(=O)N[C@@H](C)C(N)=O` [KKKKAAFLKLWLKLFAA], the MIC in [27] is ≥ 50 µM; in test [24] it was > 50 µM; against Escherichia coli K-12 it was 12.5 µM (≈ 25 µg/mL).
On to `CC[C@H](C)[C@H](NC(=O)[C@H](CCCCN)NC(=O)[C@H](CCCN=C(N)N)NC(=O)[C@H](Cc1ccccc1)NC(=O)[C@H](CC(C)C)NC(=O)[C@H](CCCN=C(N)N)NC(=O)[C@@H](N)CCCCN)C(=O)N[C@@H](CC(C)C)C(=O)N[C@@H](CCCCN)C(=O)N[C@@H](Cc1ccc(O)cc1)C(=O)N[C@@H](CC(C)C)C(N)=O` [KRLFRKILKYL], for which the MIC in [1] is 11.5 µM (≈ 17 µg/mL); in test [28] it was 3.04 µM (≈ 4.5 µg/mL); in test [6] it was 11.5 µM (≈ 17 µg/mL); in [29], 16.1 µM (≈ 23.8 µg/mL); in test [30] it was 3.04 µM (≈ 4.5 µg/mL); in test [31], 5.75 µM (≈ 8.49 µg/mL). The minimum inhibitory concentration (MIC) in test [32] and in test [33] was 5.75 µM (≈ 8.49 µg/mL) throughout.
As to `CC[C@H](C)[C@H](NC(=O)[C@H](CCCCN)NC(=O)[C@H](CCCCN)NC(=O)[C@H](Cc1ccccc1)NC(=O)[C@H](CC(C)C)NC(=O)[C@H](CCCCN)NC(=O)[C@H](Cc1c[nH]c2ccccc12)NC(=O)[C@H](CCCCN)NC(=O)[C@H](Cc1cnc[nH]1)NC(=O)[C@@H](NC(=O)[C@@H](N)C(C)C)[C@@H](C)CC)C(=O)NCC(=O)N[C@@H](C)C(=O)N[C@H](C(=O)N[C@@H](CC(C)C)C(=O)N[C@@H](CCCCN)C(=O)N[C@H](C(=O)N[C@@H](CC(C)C)C(=O)O)C(C)C)C(C)C` [VIHKWKLFKKIGAVLKVL], the MIC in test [1] amounted to 4 µM (≈ 8.48 µg/mL); in [34], 4 µM (≈ 8.48 µg/mL); in test [17], 30 µM (≈ 63.6 µg/mL); in [35], 8 µM (≈ 17 µg/mL).

These data come from DBAASP.
